Like-named read-outs stand apart in the source and are kept apart here.
Legend:
NCI-H460 tumors = type: in vivo, mice
Description: Female athymic nude mice (Harlan Sprague Dawley, Madison, Wis.) were utilized for all experiments. Animals were housed in ventilated rack caging with food and water ad libitum. The mice were acclimated for at least 5 days prior to tumor implantation.
The tumor model used in this study was NCI-H460 cell line which is a human NSCLC cell line obtained from the ATCC (Manassas, Va.). […] Cells from in vitro passage 7 were implanted SC into study mice using a 1 ml syringe with a 13G trocar: 5×10^6 cells/mouse in 0.2 ml 50% Matrigel/50% RPMI medium of NCI-H460 without serum or antibiotics. Bacterial culture was taken on cells used to implant the study.
Treatments were initiated on DPI 9.
Tumor size measurements were recorded 2-3 times/week from the treatment initiation until the termination of the study.
(§1) Mean, standard deviation and standard error of the mean were determined for tumor volume for all animal groups at all assessments. Student's t test was performed on tumor volumes at each measurement day, including at the end of the study, to determine whether there were any statistically significant differences between combination treatment groups and single monotherapy treatment groups.

SK-OV-3 tumors = type: in vivo, mice
Source text: Female athymic nude mice (Harlan Sprague Dawley, Madison, Wis.) were utilized for all experiments. Animals were housed in ventilated rack caging with food and water ad libitum. The mice were acclimated for at least 5 days prior to tumor implantation with tumor fragments.
The tumor model used in these studies was SK-OV-3 cell line, which was obtained from the ATCC (Manassas, Va.).
SK-OV-3 fragments were removed from donor animals and tissue was debrided of membrane and any hemorrhagic and necrotic areas and 3-4 mm^3 fragments, from in vivo passage 2, were implanted SC on the right flank of each animal, using a 13G trochar. Bacterial culture was taken on cells used to implant the study.
Treatments were initiated on DPI 14.
Tumor size measurements were recorded twice weekly from the treatment initiation until the termination of the study.
as §1

[1] = Bevacizumab […] IP, alone or with PM00104 0.9 mg/kg/day IV
[2] = PM00104 0.9 mg/kg/day IV and/or Bevacizumab 5 mg/kg/day IP
[3] = Bevacizumab […] IP, alone or with PM00104 0.90 mg/kg/day IV
[4] = PM00104 0.90 mg/kg/day IV and/or Bevacizumab 5 mg/kg/day IP

Q: How did the “% T/C on day 9” value (NCI-H460 tumors; [1]) turn out when bevacizumab was run?
A: 99.4%

Q: What about the “% T/C on day 13” value (NCI-H460 tumors; [1]) of the same substance?
A: 81.7%

Q: And the “% T/C on day 16” value (NCI-H460 tumors; [1])?
A: 74.3%

Q: What about the “% T/C on day 21” value (NCI-H460 tumors; [1]) of the same substance?
A: 59.7%

Q: What about the “% T/C on day 24” value (NCI-H460 tumors; [1]) of the same substance?
A: 52.0%

Q: And the “% T/C on day 27” value (NCI-H460 tumors; [1])?
A: 26.9%

Q: What about the “% T/C on day 30” value (NCI-H460 tumors; [1]) of the same substance?
A: 43.3%

Q: And the “% T/C on day 38” value (NCI-H460 tumors; [1])?
A: 96.8%

Q: And the “% T/C on day 41” value (NCI-H460 tumors; [1])?
A: 104.7%

Q: What about the “% T/C on day 9” value (NCI-H460 tumors; [2]) of the same substance?
A: 102.1%

Q: And the “% T/C on day 13” value (NCI-H460 tumors; [2])?
A: 91.3%

Q: And the “% T/C on day 16” value (NCI-H460 tumors; [2])?
A: 87.6%

Q: And the “% T/C on day 21” value (NCI-H460 tumors; [2])?
A: 74.2%

Q: What about the “% T/C on day 24” value (NCI-H460 tumors; [2]) of the same substance?
A: 68.3%

Q: And the “% T/C on day 27” value (NCI-H460 tumors; [2])?
A: 38.7%

Q: And the “% T/C on day 30” value (NCI-H460 tumors; [2])?
A: 43.7%

Q: And the “% T/C on day 14” value (SK-OV-3 tumors; [3])?
A: 100.5%

Q: And the “% T/C on day 17” value (SK-OV-3 tumors; [3])?
A: 85.0%

Q: And the “% T/C on day 21” value (SK-OV-3 tumors; [3])?
A: 61.0%

Q: And the “% T/C on day 24” value (SK-OV-3 tumors; [3])?
A: 48.4%

Q: And the “% T/C on day 29” value (SK-OV-3 tumors; [3])?
A: 32.1%

Q: And the “% T/C on day 32” value (SK-OV-3 tumors; [3])?
A: 29.6%

Q: What about the “% T/C on day 36” value (SK-OV-3 tumors; [3]) of the same substance?
A: 40.3%

Q: And the “% T/C on day 43” value (SK-OV-3 tumors; [3])?
A: 48.7%

Q: And the “% T/C on day 50” value (SK-OV-3 tumors; [3])?
A: 47.5%

Q: What about the “% T/C on day 57” value (SK-OV-3 tumors; [3]) of the same substance?
A: 70.0%

Q: And the “% T/C on day 14” value (SK-OV-3 tumors; [4])?
A: 100.2%

Q: What about the “% T/C on day 17” value (SK-OV-3 tumors; [4]) of the same substance?
A: 76.6%

Q: And the “% T/C on day 21” value (SK-OV-3 tumors; [4])?
A: 64.0%

Q: What about the “% T/C on day 24” value (SK-OV-3 tumors; [4]) of the same substance?
A: 42.6%

Q: And the “% T/C on day 29” value (SK-OV-3 tumors; [4])?
A: 28.0%

Q: And the “% T/C on day 32” value (SK-OV-3 tumors; [4])?
A: 25.8%

Q: What about the “% T/C on day 36” value (SK-OV-3 tumors; [4]) of the same substance?
A: 30.7%

Q: And the “% T/C on day 43” value (SK-OV-3 tumors; [4])?
A: 43.8%

Q: What about the “% T/C on day 50” value (SK-OV-3 tumors; [4]) of the same substance?
A: 42.5%

Q: What about the “% T/C on day 57” value (SK-OV-3 tumors; [4]) of the same substance?
A: 46.1%

— patent US20110070232A1, “Combination Therapy with an Antitumor Alkaloid” (Pharma Mar, S.A., priority 2008, published 2011)
